# Laboratory results published in patent EP3632916B1, “MORPHINAN COMPOUNDS” (Concert Pharmaceuticals Inc., priority 2007, dated 2008).
# Target: Human CYP2D6 + P450 Reductase SUPERSOMES (Homo sapiens, UniProt P10635)
# Conditions: 0.1 µM, 2D6 Supersomes
# Method: Plates were then spun in the centrifuge for 10 minutes at 3000 rpm.
# Chain of Human CYP2D6 + P450 Reductase SUPERSOMES (P10635 whole entry): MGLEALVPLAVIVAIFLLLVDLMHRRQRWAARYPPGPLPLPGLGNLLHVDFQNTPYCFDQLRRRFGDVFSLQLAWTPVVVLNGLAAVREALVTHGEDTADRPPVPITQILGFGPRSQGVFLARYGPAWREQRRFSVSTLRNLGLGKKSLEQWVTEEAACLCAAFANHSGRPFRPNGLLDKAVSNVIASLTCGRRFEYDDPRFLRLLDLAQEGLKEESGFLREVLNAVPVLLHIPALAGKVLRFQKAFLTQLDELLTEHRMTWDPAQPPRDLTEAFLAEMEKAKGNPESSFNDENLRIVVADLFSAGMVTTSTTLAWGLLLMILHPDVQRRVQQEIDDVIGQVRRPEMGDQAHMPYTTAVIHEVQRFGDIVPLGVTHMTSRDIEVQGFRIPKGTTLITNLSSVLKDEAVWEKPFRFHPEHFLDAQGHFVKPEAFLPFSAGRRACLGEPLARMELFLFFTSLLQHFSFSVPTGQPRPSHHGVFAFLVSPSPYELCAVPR
smiles,measurement,value
"COc1ccc2c(c1)[C@]13CCCC[C@@H]1[C@H](C2)N(C)CC3 [dextromethorphan, (+)-3-methoxy-17-methyl-(9α,13α,14α)-morphinan]",intact compound at the 20 minute time point,no intact dextromethorphan could be detected
